Reference: PubChem BioAssay (NCI)
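Results reflect a 48-hour exposure of cells in 96-well plates to compound at five concentrations. TGI marks complete inhibition of growth.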

Key:
Experiment in all cases: growth of human tumour cells (NCI), 48 h
[1] = tested on: SF-295 CNS
[2] = tested on: MDA-N
[3] = tested on: DU-145 prostate
[4] = tested on: RPMI-8226 leukemia
[5] = tested on: SNB-75 CNS
[6] = tested on: HOP-62 NSCLC
[7] = tested on: OVCAR-4 ovarian
[8] = tested on: HCT-116 colon
[9] = tested on: HT29 colon
[10] = tested on: SK-OV-3 ovarian
[11] = tested on: MDA-MB-435
[12] = tested on: CCRF-CEM leukemia
[13] = tested on: SF-539 CNS
[14] = tested on: HL-60(TB) leukemia
[15] = tested on: MCF7 breast
[16] = tested on: SR leukemia
[17] = tested on: SK-MEL-5 melanoma
[18] = tested on: ACHN renal
[19] = tested on: NCI-H23 lung
[20] = tested on: EKVX NSCLC
[21] = tested on: HS 578T breast
[22] = tested on: HCC-2998 colon
[23] = tested on: COLO 205 colon
[24] = tested on: NCI-H460 lung
[25] = tested on: A549 NSCLC
[26] = tested on: A498 renal
[27] = tested on: M14 melanoma
[28] = tested on: OVCAR-8 ovarian
[29] = tested on: SW-620 colon
[30] = tested on: LOX IMVI melanoma
[31] = tested on: 786-0 renal
[32] = tested on: NCI-H226 lung
[33] = tested on: OVCAR-3 ovarian
[34] = tested on: NCI/ADR-RES ovarian
[35] = tested on: K-562 leukemia
[36] = tested on: SNB-19 CNS
[37] = tested on: TK-10 renal
[38] = tested on: MDA-MB-231 breast
[39] = tested on: CAKI-1 renal
[40] = tested on: T-47D breast
[41] = tested on: SK-MEL-2 melanoma
[42] = tested on: OVCAR-5 ovarian
[43] = tested on: SN12C renal
[44] = tested on: MOLT-4 leukemia
[45] = tested on: IGROV1 ovarian
[46] = tested on: RXF 393 renal
[47] = tested on: HOP-92 NSCLC
[48] = tested on: NCI-H522 lung
[49] = tested on: U251 CNS
[50] = tested on: PC-3 prostate
[51] = tested on: KM12 colon
[52] = tested on: UACC-257 melanoma
[53] = tested on: UACC-62 melanoma
[54] = tested on: HCT-15 colon
[55] = tested on: SK-MEL-28 melanoma
[56] = tested on: SF-268 CNS
[57] = tested on: MALME-3M melanoma
[58] = tested on: UO-31 renal

Measured: TGI

CN(C)CCCOC(=O)C(O)(Cc1ccccc1)C1CC1 (centres undefined)
not listed: [58]
> 100 µM: all other assays above

COC(=O)CC1C2CC3C(C2=O)C13 (centres undefined)
not listed: [4]
> 100 µM: all other assays above
